According to PubChem BioAssay AID326 (DTP/NCI, 2004):
Where “and” joins values, the source holds several entries; their conditions need not be identical. Equal entries are not always repeated. Toxic doses and inconclusive results are not listed.

Tested on: CD2F1 mice, P388/DHAQ leukemia ip, median survival T/C
Experiment: NCI In Vivo Anticancer Drug Screen. Data for tumor model P388 Leukemia resistant to Dihydroxy Anthracenedione; NSC 299195 (intraperitoneal) in CD2F1 (CDF1) mice
Conditions: endpoint: median survival time, higher = longer survival
Description: The antitumor activity of compounds was measured in mice bearing transplantable tumors. Survival or tumor size were measured and the results are expressed as the measurement made in the treated group (T) divided by the measurement made in the vehicle treated control group (C). The tumor model used in this assay is P388 Leukemia resistant to Dihydroxy Anthracenedione; NSC 299195 (intraperitoneal) in CD2F1 (CDF1) mice

[1] = dose: 4.32 mg/kg/injection, schedule: Q04DX003 (ip), vehicle: saline
[2] = dose: 7.2 mg/kg/injection, schedule: Q04DX003 (ip), vehicle: saline
[3] = dose: 2.0 mg/kg/injection, schedule: Q04DX003 (ip), vehicle: saline

With C(=N/NC1=NCCN1)/c1c2ccccc2c(/C=N\NC2=NCCN2)c2ccccc12 the T/C (dose: 5.18 mg/kg/injection, schedule: Q04DX002 (ip), vehicle: saline) was 103 % of control, the T/C (dose: 8.64 mg/kg/injection, schedule: Q04DX002 (ip), vehicle: saline) was 108 % of control and the T/C (dose: 13.0 mg/kg/injection, schedule: Q04DX002 (ip), vehicle: water) was 111 % of control. For the same compound, the T/C (dose: 14.4 mg/kg/injection, schedule: Q04DX002 (ip), vehicle: saline) was 105 % of control, the T/C (dose: 21.6 mg/kg/injection, schedule: Q04DX002 (ip), vehicle: water) was 118 % of control and the T/C (dose: 36.0 mg/kg/injection, schedule: Q04DX002 (ip), vehicle: water) was 111 % of control. For the same compound, the T/C (dose: 40.0 mg/kg/injection, schedule: Q04DX002 (ip), vehicle: saline) was 98 % of control and the T/C (dose: 60.0 mg/kg/injection, schedule: Q04DX002 (ip), vehicle: water) was 109 % of control.
In the case of CO[C@@]12[C@H](COC(N)=O)C3=C(C(=O)C(C)=C(N)C3=O)N1C[C@@H]1N[C@@H]12, the T/C (dose: 1.08 mg/kg/injection, schedule: Q04DX002 (ip), vehicle: saline) is reported as 95 % of control, the T/C (dose: 1.62 mg/kg/injection, schedule: Q04DX003 (ip), vehicle: saline) is reported as 166 % of control and the T/C (dose: 1.8 mg/kg/injection, schedule: Q04DX002 (ip), vehicle: saline) is reported as 108 % of control. For the same compound, the T/C (dose: 2.7 mg/kg/injection, schedule: Q04DX003 (ip), vehicle: saline) was 172 % of control, the T/C (dose: 3.0 mg/kg/injection, schedule: Q04DX002 (ip), vehicle: saline) was 103 % of control and the T/C (dose: 4.5 mg/kg/injection, schedule: Q04DX003 (ip), vehicle: saline) was 168 % of control. The T/C (dose: 5.0 mg/kg/injection, schedule: Q04DX002 (ip), vehicle: saline) was 117 % of control and the T/C (dose: 7.5 mg/kg/injection, schedule: Q04DX003 (ip), vehicle: saline) was 108 % of control.
N[C@@H](Cc1ccc(N(CCCl)CCCl)cc1)C(=O)O was tested, and the T/C (dose: 1.94 mg/kg/injection, schedule: Q04DX002 (ip), vehicle: saline) was 114 % of control and 119 % of control and 120 % of control, the T/C (dose: 1.94 mg/kg/injection, schedule: Q04DX003 (ip), vehicle: saline) was 106 % of control and the T/C (dose: 3.24 mg/kg/injection, schedule: Q04DX002 (ip), vehicle: saline) was 117 % of control and 118 % of control. For the same compound, the T/C (dose: 3.24 mg/kg/injection, schedule: Q04DX003 (ip), vehicle: saline) was 117 % of control, the T/C (dose: 9.0 mg/kg/injection, schedule: Q04DX002 (ip), vehicle: saline) was 157 % of control and 160 % of control and 163 % of control and the T/C (dose: 9.0 mg/kg/injection, schedule: Q04DX003 (ip), vehicle: saline) was 157 % of control. The T/C (dose: 15.0 mg/kg/injection, schedule: Q04DX002 (ip), vehicle: saline) was 102 % of control and 118 % of control and the T/C (dose: 15.0 mg/kg/injection, schedule: Q04DX003 (ip), vehicle: saline) was 152 % of control and 156 % of control.
In the case of COc1cccc2c1C(=O)c1c(O)c3c(c(O)c1C2=O)C[C@@](O)(C(=O)CO)C[C@@H]3OC1CC(N)C(O)C(C)O1 (stereo partly drawn), the T/C (dose: 0.97 mg/kg/injection, schedule: Q04DX002 (ip), vehicle: saline) is reported as 118 % of control, the T/C (dose: 1.3 mg/kg/injection, schedule: Q04DX002 (ip), vehicle: saline) is reported as 115 % of control and 120 % of control and the T/C (dose: 2.16 mg/kg/injection, schedule: Q04DX002 (ip), vehicle: saline) is reported as 120 % of control. For the same compound, the T/C (dose: 2.7 mg/kg/injection, schedule: Q04DX002 (ip), vehicle: saline) was 119 % of control, the T/C (dose: 3.6 mg/kg/injection, schedule: Q04DX002 (ip), vehicle: saline) was 123 % of control and the T/C (dose: 6.0 mg/kg/injection, schedule: Q04DX002 (ip), vehicle: saline) was 121 % of control. For the same compound, the T/C (dose: 10.0 mg/kg/injection, schedule: Q04DX002 (ip), vehicle: saline) was 102 % of control and 120 % of control.
For C[n+]1ccc(Nc2ccc(NC(=O)c3ccc(Nc4cc[n+](C)c5ccc(N)cc45)cc3)cc2)cc1, the T/C (dose: 1.94 mg/kg/injection, schedule: Q04DX003 (ip), vehicle: water) was 114 % of control, the T/C (dose: 3.24 mg/kg/injection, schedule: Q04DX003 (ip), vehicle: water) was 116 % of control and the T/C (dose: 5.4 mg/kg/injection, schedule: Q04DX003 (ip), vehicle: water) was 116 % of control.
For COc1ccc(CCN(C)CCCC(C#N)(c2ccc(OC)c(OC)c2)C(C)C)cc1OC (stereo not drawn), the T/C (dose: 16.0 mg/kg/injection, schedule: Q03HX004 (ip), vehicle: saline) was 100 % of control and the T/C (dose: 32.0 mg/kg/injection, schedule: Q03HX004 (ip), vehicle: saline) was 103 % of control.
For O=C1c2ccccc2C(=O)c2c(NCCNCCO)ccc(O)c21, the T/C (dose: 19.4 mg/kg/injection, schedule: Q04DX003 (ip), vehicle: saline) was 121 % of control, the T/C (dose: 32.4 mg/kg/injection, schedule: Q04DX003 (ip), vehicle: saline) was 107 % of control and the T/C (dose: 54.0 mg/kg/injection, schedule: Q04DX003 (ip), vehicle: saline) was 90 % of control.
In the case of O=P1(N(CCCl)CCCl)NCCCO1 (stereo not drawn), the T/C (dose: 32.4 mg/kg/injection, schedule: Q04DX002 (ip), vehicle: saline) is reported as 189 % of control, the T/C (dose: 38.9 mg/kg/injection, schedule: Q04DX003 (ip), vehicle: saline) is reported as 224 % of control and the T/C (dose: 43.2 mg/kg/injection, schedule: Q04DX002 (ip), vehicle: saline) is reported as 203 % of control. For the same compound, the T/C (dose: 54.0 mg/kg/injection, schedule: Q04DX002 (ip), vehicle: saline) was 255 % of control, the T/C (dose: 64.8 mg/kg/injection, schedule: Q04DX003 (ip), vehicle: saline) was 353 % of control and the T/C (dose: 72.0 mg/kg/injection, schedule: Q04DX002 (ip), vehicle: saline) was 201 % of control. For the same compound, the T/C (dose: 90.0 mg/kg/injection, schedule: Q04DX002 (ip), vehicle: saline) was 336 % of control, the T/C (dose: 108.0 mg/kg/injection, schedule: Q04DX003 (ip), vehicle: saline) was 463 % of control and the T/C (dose: 120.0 mg/kg/injection, schedule: Q04DX002 (ip), vehicle: saline) was 223 % of control. For the same compound, the T/C (dose: 150.0 mg/kg/injection, schedule: Q04DX002 (ip), vehicle: saline) was 200 % of control and the T/C (dose: 200.0 mg/kg/injection, schedule: Q04DX002 (ip), vehicle: saline) was 380 % of control.
In the case of CC[C@@]1(O)C[C@H](OC2CC(N(C)C)C(OC3CC(O)C(OC4CCC(=O)C(C)O4)C(C)O3)C(C)O2)c2c(cc3c(c2O)C(=O)c2c(O)ccc(O)c2C3=O)[C@H]1C(=O)OC (stereo partly drawn), the T/C (dose: 1.56 mg/kg/injection, schedule: Q04DX003 (ip), vehicle: saline) is reported as 116 % of control, the T/C [1] is reported as 162 % of control and the T/C [2] is reported as 189 % of control and 190 % of control and 220 % of control.
CC(=O)[C@]1(O)Cc2c(O)c3c(c(O)c2[C@@H](OC2CC(N)C(O)C(C)O2)C1)C(=O)c1c(O)cccc1C3=O (stereo partly drawn) was tested, and the T/C (dose: 0.32 mg/kg/injection, schedule: Q04DX003 (ip), vehicle: saline) was 113 % of control, the T/C (dose: 0.54 mg/kg/injection, schedule: Q04DX003 (ip), vehicle: saline) was 111 % of control and the T/C (dose: 1.5 mg/kg/injection, schedule: Q04DX003 (ip), vehicle: saline) was 110 % of control. For the same compound, the T/C [3] was 96 % of control and the T/C (dose: 2.5 mg/kg/injection, schedule: Q04DX003 (ip), vehicle: saline) was 95 % of control.
With CC[C@H]1CN2CCc3cc(OC)c(OC)cc3[C@@H]2C[C@@H]1C[C@H]1NCCc2cc(OC)c(OC)cc21 the T/C [1] was 111 % of control, the T/C (dose: 5.18 mg/kg/injection, schedule: Q04DX003 (ip), vehicle: saline) was 111 % of control and the T/C [2] was 121 % of control. The T/C (dose: 8.64 mg/kg/injection, schedule: Q04DX003 (ip), vehicle: saline) was 121 % of control, the T/C (dose: 12.0 mg/kg/injection, schedule: Q04DX003 (ip), vehicle: saline) was 121 % of control and the T/C (dose: 14.4 mg/kg/injection, schedule: Q04DX003 (ip), vehicle: saline) was 156 % of control. For the same compound, the T/C (dose: 24.0 mg/kg/injection, schedule: Q04DX003 (ip), vehicle: saline) was 175 % of control and 228 % of control.
In the case of CC[C@]1(O)C[C@H]2CN(CCc3c([nH]c4ccccc34)[C@@](C(=O)OC)(c3cc4c(cc3OC)N(C=O)[C@H]3[C@@](O)(C(=O)OC)[C@H](OC(C)=O)[C@]5(CC)C=CCN6CC[C@]43[C@@H]65)C2)C1, the T/C (dose: 0.43 mg/kg/injection, schedule: Q04DX003 (ip), vehicle: saline) is reported as 160 % of control, the T/C (dose: 0.72 mg/kg/injection, schedule: Q04DX003 (ip), vehicle: saline) is reported as 150 % of control and 158 % of control and 169 % of control and the T/C (dose: 1.2 mg/kg/injection, schedule: Q04DX003 (ip), vehicle: saline) is reported as 161 % of control and 168 % of control and 172 % of control. The T/C [3] was 168 % of control and 169 % of control and 195 % of control.
For O=NN(CCCl)C(=O)NC1CCCCC1, the T/C (dose: 7.2 mg/kg/injection, schedule: Q04DX003 (ip), vehicle: saline + alcohol) was 192 % of control, the T/C (dose: 12.0 mg/kg/injection, schedule: Q04DX003 (ip), vehicle: saline + alcohol) was 337 % of control and the T/C (dose: 20.0 mg/kg/injection, schedule: Q04DX003 (ip), vehicle: saline + alcohol) was 542 % of control. For the same compound, the T/C (dose: 33.3 mg/kg/injection, schedule: Q04DX003 (ip), vehicle: saline + alcohol) was 202 % of control.
